{"source": "patent US20120122776A1", "about": "“DPP-IV INHIBITORS FOR TREATMENT OF DIABETES IN PEDIATRIC PATIENTS” (BOEHRINGER INGELHEIM INTERNATIONAL GMBH, priority 2009, published 2012)", "key": {"[1]": {"assay": "Safety (adverse events, hypoglycaemia) in the 12-week add-on to metformin study", "assay_type": "in vivo, human", "details": "12 weeks", "excerpt": "In total, 106 patients (43.1%) experienced adverse events (AEs) with similar incidences across all treatments. Most frequently reported episodes were nasopharyngitis (7.5%), diarrhoea (3.3%), and nausea (3.0%). […] Ten patients (3.7%) experienced serious AEs but none of these events were considered drug-related.\nThe addition of BI 1356 to MET in patients with T2DM inadequately controlled on MET alone achieved clinically relevant and statistically significant reductions in HbA1c."}, "[2]": {"assay": "Plasma concentration after single oral administration in the thorough QT study", "assay_type": "in vivo, human", "details": "for maximum gMean concentration after single oral administration: healthy subjects", "method": "Forty-four subjects were enrolled, 26 (59.1%) of whom were male. The mean age was 36.4 years (range 22 to 48 years). The maximum gMean concentration after single oral administration was 7.05 nM (28.5% gCV) for 5 mg BI 1356, and 267 nM (66.6% gCV) for 100 mg BI 1356."}, "[3]": {"assay": "12-week randomized, double-blind add-on to metformin study in inadequately controlled adult type 2 diabetic patients: HbA1c and FPG", "details": "for placebo corrected mean reduction in HbA1c: 12 weeks", "experimental": "Effects were compared to add-on of placebo (PBO) or of open label glimepiride (GLIM; 1 to 3 mg qd) in a 12-week randomized, double-blind study.\nThe primary endpoint was change from baseline in HbA1c, adjusted for prior antidiabetic medication."}, "[4]": {"assay": "2 h postprandial blood glucose excursions, multiple oral dose study in adult patients with type 2 diabetes", "assay_type": "in vivo, human", "details": "already on Day 1; in doses 2.5 mg", "excerpt": "[…]. […] […]."}, "[5]": {"assay": "Safety and tolerability in people with type 2 diabetes"}, "[6]": {"assay": "Pharmacokinetics of BI 1356, multiple oral doses once daily for 12 days in adult patients with type 2 diabetes", "details": "for fe0-24: fraction excreted in urine; for AUCT,ss / T1/2,ss / feT,ss / tmax,ss* / Cmax: steady state (Day 12); for tmax,ss*: median; for Cmax: read-out: Cmax,ss"}, "clinical": {"assay": "clinical", "details": "human; for Cmax / Tmax / AUC(0-t): plasma; for CL renal: urine"}, "[7]": {"details": "gMean, 1 mg once daily oral for 12 days"}, "[8]": {"details": "gMean, 2.5 mg once daily oral for 12 days"}, "[9]": {"details": "gMean, 5 mg once daily oral for 12 days"}, "[10]": {"details": "gMean, 10 mg once daily oral for 12 days"}}, "data": [{"compound": "CC#CCn1c(N2CCC[C@@H](N)C2)nc2c1c(=O)n(Cc1nc(C)c3ccccc3n1)c(=O)n2C", "note": "[BI 1356]", "values": [{"measurement": "drug-related hypoglycaemia", "setting": "[1]; add-on to metformin", "value": "did not occur"}, {"measurement": "incidence of AEs versus PBO", "setting": "[1]; add-on to metformin", "value": "comparable"}, {"measurement": "tolerability of combination treatment with MET", "setting": "[1]; BI 1356 1, 5, and 10 mg and MET", "value": "well tolerated"}, {"measurement": "excretion form and pathway", "setting": "in vivo", "value": "primarily excreted unchanged via the bile"}, {"measurement": "excretion via the kidney", "setting": "therapeutic oral dose levels", "value": "< 7 % of the administered oral dose"}, {"measurement": "main excretion organ", "setting": "therapeutic oral dose levels", "value": "mainly excreted via the liver"}, {"measurement": "maximum gMean concentration after single oral administration", "setting": "[2]; 5 mg single oral dose", "value": 7.05, "unit": "nM"}, {"measurement": "maximum gMean concentration after single oral administration", "setting": "[2]; 100 mg single oral dose", "value": 267, "unit": "nM"}, {"measurement": "maximum plasma concentration of supratherapeutic dose (100 mg) relative to therapeutic dose of 5 mg", "setting": "[2]; single dose", "value": "about 38 fold"}, {"measurement": "reduction in FPG from baseline to Week 12", "setting": "[3]; 1 mg qd add-on to metformin", "value": -19, "unit": "mg/dL"}, {"measurement": "placebo corrected mean reduction in HbA1c", "setting": "[3]; 1 mg qd add-on to metformin, n=65", "value": "−0.39", "unit": "%"}, {"measurement": "reduction in FPG from baseline to Week 12", "setting": "[3]; 5 mg qd add-on to metformin", "value": -35, "unit": "mg/dL"}, {"measurement": "placebo corrected mean reduction in HbA1c", "setting": "[3]; 5 mg qd add-on to metformin, n=66", "value": "−0.75", "unit": "%"}, {"measurement": "reduction in FPG from baseline to Week 12", "setting": "[3]; 10 mg qd add-on to metformin", "value": -30, "unit": "mg/dL"}, {"measurement": "placebo corrected mean reduction in HbA1c", "setting": "[3]; 10 mg qd add-on to metformin, n=66", "value": "−0.73", "unit": "%"}, {"measurement": "decrease in 2 h postprandial blood glucose excursions", "setting": "[4]", "value": "> 80", "unit": "%"}, {"measurement": "safety and tolerability", "setting": "[5]", "value": "placebo-like safety and tolerability"}, {"measurement": "mean accumulation ratio RA,AUC", "setting": "[6]; doses above 1 mg, once daily for 12 days", "value": "≤ 1.4"}, {"measurement": "AUC0-24", "setting": "[6]; [7]", "value": 0.0402, "unit": "µM·h"}, {"measurement": "Accumulation t1/2,", "setting": "[6]; [7]", "value": 23.9, "unit": "h"}, {"measurement": "Accumulation t1/2,", "setting": "[6]; [8]", "value": 12.5, "unit": "h"}, {"measurement": "Accumulation t1/2,", "setting": "[6]; [9]", "value": 11.4, "unit": "h"}, {"measurement": "Accumulation t1/2,", "setting": "[6]; [10]", "value": 8.59, "unit": "h"}, {"measurement": "fe0-24", "setting": "[6]; [8]", "value": 0.139, "unit": "%"}, {"measurement": "fe0-24", "setting": "[6]; [9]", "value": 0.453, "unit": "%"}, {"measurement": "fe0-24", "setting": "[6]; [10]", "value": 0.919, "unit": "%"}, {"measurement": "AUCT,ss", "setting": "[6]; gMean, 1 mg once daily oral", "value": 0.0817, "unit": "µM·h"}, {"measurement": "T1/2,ss", "setting": "[6]; gMean, 1 mg once daily oral", "value": 121, "unit": "h"}, {"measurement": "feT,ss", "setting": "[6]; gMean, 1 mg once daily oral", "value": 3.34, "unit": "%"}, {"measurement": "AUCT,ss", "setting": "[6]; gMean, 2.5 mg once daily oral", "value": 0.117, "unit": "µM·h"}, {"measurement": "T1/2,ss", "setting": "[6]; gMean, 2.5 mg once daily oral", "value": 113, "unit": "h"}, {"measurement": "feT,ss", "setting": "[6]; gMean, 2.5 mg once daily oral", "value": 3.06, "unit": "%"}, {"measurement": "AUCT,ss", "setting": "[6]; gMean, 5 mg once daily oral", "value": 0.158, "unit": "µM·h"}, {"measurement": "T1/2,ss", "setting": "[6]; gMean, 5 mg once daily oral", "value": 131, "unit": "h"}, {"measurement": "feT,ss", "setting": "[6]; gMean, 5 mg once daily oral", "value": 6.27, "unit": "%"}, {"measurement": "AUCT,ss", "setting": "[6]; gMean, 10 mg once daily oral", "value": 0.19, "unit": "µM·h"}, {"measurement": "T1/2,ss", "setting": "[6]; gMean, 10 mg once daily oral", "value": 130, "unit": "h"}, {"measurement": "feT,ss", "setting": "[6]; gMean, 10 mg once daily oral", "value": 3.22, "unit": "%"}, {"measurement": "tmax,ss*", "setting": "[6]; 1 mg once daily oral", "value": 1.48, "unit": "h"}, {"measurement": "tmax,ss*", "setting": "[6]; 2.5 mg once daily oral", "value": 1.42, "unit": "h"}, {"measurement": "tmax,ss*", "setting": "[6]; 5 mg once daily oral", "value": 1.53, "unit": "h"}, {"measurement": "tmax,ss*", "setting": "[6]; 10 mg once daily oral", "value": 1.34, "unit": "h"}, {"measurement": "Cmax", "setting": "[6]; gMean, 1 mg once daily oral", "value": 4.53, "unit": "nM"}, {"measurement": "Cmax", "setting": "[6]; gMean, 2.5 mg once daily oral", "value": 6.58, "unit": "nM"}, {"measurement": "Cmax", "setting": "[6]; gMean, 5 mg once daily oral", "value": 11.1, "unit": "nM"}, {"measurement": "Cmax", "setting": "[6]; gMean, 10 mg once daily oral", "value": 13.6, "unit": "nM"}, {"measurement": "Cmax", "setting": "clinical; po, 1 mg", "value": 3.13, "unit": "nM"}, {"measurement": "Tmax", "setting": "clinical; po, 1 mg", "value": 1.5, "unit": "h"}, {"measurement": "AUC(0-t)", "setting": "clinical; po, 2.5 mg", "value": 0.0853, "unit": "µM·h"}, {"measurement": "Cmax", "setting": "clinical; po, 2.5 mg", "value": 5.25, "unit": "nM"}, {"measurement": "Tmax", "setting": "clinical; po, 2.5 mg", "value": 2, "unit": "h"}, {"measurement": "AUC(0-t)", "setting": "clinical; po, 5 mg", "value": 0.118, "unit": "µM·h"}, {"measurement": "Cmax", "setting": "clinical; po, 5 mg", "value": 8.32, "unit": "nM"}, {"measurement": "Tmax", "setting": "clinical; po, 5 mg", "value": 1.75, "unit": "h"}, {"measurement": "AUC(0-t)", "setting": "clinical; po, 10 mg", "value": 0.161, "unit": "µM·h"}, {"measurement": "Cmax", "setting": "clinical; po, 10 mg", "value": 9.69, "unit": "nM"}, {"measurement": "Tmax", "setting": "clinical; po, 10 mg", "value": 2, "unit": "h"}, {"measurement": "CL renal", "setting": "clinical; oral, 5 mg", "value": "~70", "unit": "mL/min"}, {"measurement": "CL renal", "setting": "clinical; po", "value": "14 to 70", "unit": "mL/min"}]}, {"compound": "CCC1=C(C)CN(C(=O)NCCc2ccc(S(=O)(=O)NC(=O)N[C@H]3CC[C@H](C)CC3)cc2)C1=O", "note": "[GLIM, glimepiride, reference compound]", "values": [{"measurement": "drug-related hypoglycaemia", "setting": "[1]; add-on to metformin", "value": 3, "unit": "patients"}, {"measurement": "mean PBO corrected reduction in HbA1c at Week 12", "setting": "[3]; open label, 1 to 3 mg qd add-on to metformin, n=64", "value": "−0.90", "unit": "%"}]}]}
